The target in test [1] is T1, MST1R (Homo sapiens, UniProt Q04912).
T1 construct: purchased DiscoveRx KINOMEscan
Type of test: binding. Conditions: 10 μM.

Test [2] concerns the target T2, DDR2 (Homo sapiens, UniProt Q16832).
T2 sequence (Q16832 22-855): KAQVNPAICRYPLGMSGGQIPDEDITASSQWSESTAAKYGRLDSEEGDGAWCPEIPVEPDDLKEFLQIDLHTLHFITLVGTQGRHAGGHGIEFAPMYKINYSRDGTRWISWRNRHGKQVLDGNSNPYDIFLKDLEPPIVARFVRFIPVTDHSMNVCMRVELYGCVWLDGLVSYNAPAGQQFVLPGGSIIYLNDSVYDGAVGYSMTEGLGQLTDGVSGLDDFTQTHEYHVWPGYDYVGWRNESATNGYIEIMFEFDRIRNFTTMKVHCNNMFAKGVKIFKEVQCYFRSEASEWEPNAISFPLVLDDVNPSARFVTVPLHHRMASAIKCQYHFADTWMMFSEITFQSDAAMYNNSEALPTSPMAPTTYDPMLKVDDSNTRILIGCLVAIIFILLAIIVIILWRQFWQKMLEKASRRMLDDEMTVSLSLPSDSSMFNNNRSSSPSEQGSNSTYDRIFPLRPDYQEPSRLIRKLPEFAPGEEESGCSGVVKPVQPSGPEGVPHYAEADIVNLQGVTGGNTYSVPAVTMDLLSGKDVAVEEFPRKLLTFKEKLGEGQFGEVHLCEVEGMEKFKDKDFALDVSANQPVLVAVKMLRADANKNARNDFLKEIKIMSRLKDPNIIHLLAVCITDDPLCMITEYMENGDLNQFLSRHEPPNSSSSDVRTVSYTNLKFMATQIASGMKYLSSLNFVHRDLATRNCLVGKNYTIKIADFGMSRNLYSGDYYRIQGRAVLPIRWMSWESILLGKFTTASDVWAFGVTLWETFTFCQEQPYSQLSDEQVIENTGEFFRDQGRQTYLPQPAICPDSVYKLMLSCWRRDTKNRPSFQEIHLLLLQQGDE
Conditions: 10 μM.

The target in test [3] is RET(V804TL) (Homo sapiens, UniProt P07949, V804L). Conditions: 10 μM.
The target in test [4] is T3, TYRO3 (Homo sapiens, UniProt Q06418).
T3 construct: purchased DiscoveRx Corporation (KINOMEscan service)
T3 sequence (Q06418 41-890): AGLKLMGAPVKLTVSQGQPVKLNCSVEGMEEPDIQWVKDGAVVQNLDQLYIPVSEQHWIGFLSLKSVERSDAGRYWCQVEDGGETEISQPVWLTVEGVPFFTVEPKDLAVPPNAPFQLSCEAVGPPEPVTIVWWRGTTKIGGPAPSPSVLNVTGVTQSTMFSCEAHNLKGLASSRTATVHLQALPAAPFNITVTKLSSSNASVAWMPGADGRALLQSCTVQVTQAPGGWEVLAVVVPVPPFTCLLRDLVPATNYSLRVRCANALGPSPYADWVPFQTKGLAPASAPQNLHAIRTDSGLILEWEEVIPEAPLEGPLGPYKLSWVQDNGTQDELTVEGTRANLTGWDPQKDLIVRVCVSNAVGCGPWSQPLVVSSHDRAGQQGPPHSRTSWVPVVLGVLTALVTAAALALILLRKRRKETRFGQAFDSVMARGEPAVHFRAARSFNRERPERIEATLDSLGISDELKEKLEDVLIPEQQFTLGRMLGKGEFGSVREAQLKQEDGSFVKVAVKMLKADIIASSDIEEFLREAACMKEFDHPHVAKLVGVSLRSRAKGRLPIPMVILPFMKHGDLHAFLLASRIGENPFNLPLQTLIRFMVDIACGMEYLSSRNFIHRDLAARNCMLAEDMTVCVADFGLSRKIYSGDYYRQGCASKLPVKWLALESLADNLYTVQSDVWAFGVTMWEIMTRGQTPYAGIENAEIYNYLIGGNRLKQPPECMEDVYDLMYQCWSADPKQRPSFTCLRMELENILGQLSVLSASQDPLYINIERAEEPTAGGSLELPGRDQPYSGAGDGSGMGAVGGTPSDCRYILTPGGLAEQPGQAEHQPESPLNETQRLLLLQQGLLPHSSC
Format: binding. Conditions: for Percent control: 10 μM.

Test [5] concerns the target FYN (Homo sapiens, UniProt P06241). The conditions noted are these: 10 μM.
The target of test [6] is T4, KIT(A829P) (Homo sapiens, UniProt P10721, A829P). Conditions: 10 μM.
In test [7] the target is T5, EPHB1 (Homo sapiens, UniProt P54762).
T5 sequence (P54762 18-984): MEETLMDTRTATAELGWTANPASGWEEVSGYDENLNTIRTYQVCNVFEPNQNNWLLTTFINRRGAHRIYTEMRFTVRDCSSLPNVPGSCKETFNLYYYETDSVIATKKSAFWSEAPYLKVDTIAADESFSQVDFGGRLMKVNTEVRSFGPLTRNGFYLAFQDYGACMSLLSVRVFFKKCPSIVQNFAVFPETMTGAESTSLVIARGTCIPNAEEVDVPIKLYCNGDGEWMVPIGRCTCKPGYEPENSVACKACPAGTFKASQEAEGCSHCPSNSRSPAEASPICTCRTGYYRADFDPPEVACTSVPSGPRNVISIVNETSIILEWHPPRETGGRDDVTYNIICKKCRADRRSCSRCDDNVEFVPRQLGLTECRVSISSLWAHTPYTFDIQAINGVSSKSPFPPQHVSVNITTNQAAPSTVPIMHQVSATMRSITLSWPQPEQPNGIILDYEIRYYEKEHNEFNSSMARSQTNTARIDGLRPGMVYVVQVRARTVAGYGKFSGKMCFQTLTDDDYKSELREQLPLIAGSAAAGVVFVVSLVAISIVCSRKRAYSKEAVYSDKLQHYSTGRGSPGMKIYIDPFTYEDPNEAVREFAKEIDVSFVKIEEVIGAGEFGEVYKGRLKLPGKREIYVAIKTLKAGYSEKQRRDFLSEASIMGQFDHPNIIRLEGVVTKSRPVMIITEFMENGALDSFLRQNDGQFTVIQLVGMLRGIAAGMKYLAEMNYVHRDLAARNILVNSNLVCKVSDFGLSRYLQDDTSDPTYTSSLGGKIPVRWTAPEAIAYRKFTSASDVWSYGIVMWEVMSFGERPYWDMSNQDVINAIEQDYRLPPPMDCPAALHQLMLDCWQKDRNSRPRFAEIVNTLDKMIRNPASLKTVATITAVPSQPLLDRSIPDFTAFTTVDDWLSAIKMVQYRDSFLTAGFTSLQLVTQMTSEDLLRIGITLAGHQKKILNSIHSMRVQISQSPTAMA
Conditions: 10 μM.

The target of test [8] is T4, KIT(A829P). The test is described as follows: biochemical. The conditions noted are these: read-out: Percent control.

The structures appear in SMILES notation.

T4 sequence (P10721 26-976 A829P): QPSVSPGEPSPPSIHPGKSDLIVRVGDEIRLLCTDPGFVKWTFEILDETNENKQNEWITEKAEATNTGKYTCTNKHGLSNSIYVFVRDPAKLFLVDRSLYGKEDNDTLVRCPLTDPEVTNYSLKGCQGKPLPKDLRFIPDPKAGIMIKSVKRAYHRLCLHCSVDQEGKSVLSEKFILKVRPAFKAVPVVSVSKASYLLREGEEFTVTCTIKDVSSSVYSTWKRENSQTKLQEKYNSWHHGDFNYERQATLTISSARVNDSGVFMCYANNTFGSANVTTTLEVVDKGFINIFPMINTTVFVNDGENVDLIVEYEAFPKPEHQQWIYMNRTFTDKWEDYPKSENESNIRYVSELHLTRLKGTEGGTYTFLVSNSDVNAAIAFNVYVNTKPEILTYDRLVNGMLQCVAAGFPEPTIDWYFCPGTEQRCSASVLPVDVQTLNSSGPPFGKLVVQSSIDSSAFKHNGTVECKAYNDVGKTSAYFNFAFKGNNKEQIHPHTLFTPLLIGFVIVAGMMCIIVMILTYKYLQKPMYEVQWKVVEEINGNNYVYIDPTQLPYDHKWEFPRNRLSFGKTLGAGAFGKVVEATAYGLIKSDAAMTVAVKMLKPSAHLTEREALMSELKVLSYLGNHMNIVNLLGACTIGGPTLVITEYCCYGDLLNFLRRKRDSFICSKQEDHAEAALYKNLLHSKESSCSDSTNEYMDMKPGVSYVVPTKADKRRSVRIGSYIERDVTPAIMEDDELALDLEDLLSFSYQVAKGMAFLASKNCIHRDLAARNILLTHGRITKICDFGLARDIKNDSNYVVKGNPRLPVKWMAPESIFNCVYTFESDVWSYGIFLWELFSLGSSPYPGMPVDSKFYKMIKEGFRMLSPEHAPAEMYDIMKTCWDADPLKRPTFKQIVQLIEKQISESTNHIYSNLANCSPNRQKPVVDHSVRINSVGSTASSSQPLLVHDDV
Sequence of RET(V804TL) (P07949 29-1114 V804L): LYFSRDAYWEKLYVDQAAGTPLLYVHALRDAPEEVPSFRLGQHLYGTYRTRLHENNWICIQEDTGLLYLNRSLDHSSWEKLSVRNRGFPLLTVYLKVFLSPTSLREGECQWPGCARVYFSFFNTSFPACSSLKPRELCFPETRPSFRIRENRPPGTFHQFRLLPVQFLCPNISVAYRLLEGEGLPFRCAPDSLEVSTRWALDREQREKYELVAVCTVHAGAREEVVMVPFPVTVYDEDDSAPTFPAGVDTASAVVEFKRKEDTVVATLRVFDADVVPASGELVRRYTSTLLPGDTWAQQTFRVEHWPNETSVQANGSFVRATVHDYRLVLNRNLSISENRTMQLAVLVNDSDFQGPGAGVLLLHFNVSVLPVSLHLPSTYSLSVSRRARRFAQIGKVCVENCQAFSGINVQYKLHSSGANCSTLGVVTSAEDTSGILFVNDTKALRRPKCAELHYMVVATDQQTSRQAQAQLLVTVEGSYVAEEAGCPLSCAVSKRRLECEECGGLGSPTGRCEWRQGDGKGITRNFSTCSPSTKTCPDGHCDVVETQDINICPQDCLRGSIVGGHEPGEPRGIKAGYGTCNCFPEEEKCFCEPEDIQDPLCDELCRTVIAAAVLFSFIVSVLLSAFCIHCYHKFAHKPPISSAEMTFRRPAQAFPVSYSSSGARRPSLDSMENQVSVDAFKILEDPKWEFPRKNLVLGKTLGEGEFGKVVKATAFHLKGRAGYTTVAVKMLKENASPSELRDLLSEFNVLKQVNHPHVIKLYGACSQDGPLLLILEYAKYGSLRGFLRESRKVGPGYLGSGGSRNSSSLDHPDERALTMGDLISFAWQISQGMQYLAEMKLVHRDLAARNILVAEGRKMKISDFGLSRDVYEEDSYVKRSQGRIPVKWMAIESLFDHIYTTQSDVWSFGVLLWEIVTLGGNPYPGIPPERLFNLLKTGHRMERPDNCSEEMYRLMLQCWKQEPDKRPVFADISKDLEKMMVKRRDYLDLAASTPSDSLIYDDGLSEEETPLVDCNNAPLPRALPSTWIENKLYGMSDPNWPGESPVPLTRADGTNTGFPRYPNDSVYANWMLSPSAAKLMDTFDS
T1 sequence (Q04912 25-1400): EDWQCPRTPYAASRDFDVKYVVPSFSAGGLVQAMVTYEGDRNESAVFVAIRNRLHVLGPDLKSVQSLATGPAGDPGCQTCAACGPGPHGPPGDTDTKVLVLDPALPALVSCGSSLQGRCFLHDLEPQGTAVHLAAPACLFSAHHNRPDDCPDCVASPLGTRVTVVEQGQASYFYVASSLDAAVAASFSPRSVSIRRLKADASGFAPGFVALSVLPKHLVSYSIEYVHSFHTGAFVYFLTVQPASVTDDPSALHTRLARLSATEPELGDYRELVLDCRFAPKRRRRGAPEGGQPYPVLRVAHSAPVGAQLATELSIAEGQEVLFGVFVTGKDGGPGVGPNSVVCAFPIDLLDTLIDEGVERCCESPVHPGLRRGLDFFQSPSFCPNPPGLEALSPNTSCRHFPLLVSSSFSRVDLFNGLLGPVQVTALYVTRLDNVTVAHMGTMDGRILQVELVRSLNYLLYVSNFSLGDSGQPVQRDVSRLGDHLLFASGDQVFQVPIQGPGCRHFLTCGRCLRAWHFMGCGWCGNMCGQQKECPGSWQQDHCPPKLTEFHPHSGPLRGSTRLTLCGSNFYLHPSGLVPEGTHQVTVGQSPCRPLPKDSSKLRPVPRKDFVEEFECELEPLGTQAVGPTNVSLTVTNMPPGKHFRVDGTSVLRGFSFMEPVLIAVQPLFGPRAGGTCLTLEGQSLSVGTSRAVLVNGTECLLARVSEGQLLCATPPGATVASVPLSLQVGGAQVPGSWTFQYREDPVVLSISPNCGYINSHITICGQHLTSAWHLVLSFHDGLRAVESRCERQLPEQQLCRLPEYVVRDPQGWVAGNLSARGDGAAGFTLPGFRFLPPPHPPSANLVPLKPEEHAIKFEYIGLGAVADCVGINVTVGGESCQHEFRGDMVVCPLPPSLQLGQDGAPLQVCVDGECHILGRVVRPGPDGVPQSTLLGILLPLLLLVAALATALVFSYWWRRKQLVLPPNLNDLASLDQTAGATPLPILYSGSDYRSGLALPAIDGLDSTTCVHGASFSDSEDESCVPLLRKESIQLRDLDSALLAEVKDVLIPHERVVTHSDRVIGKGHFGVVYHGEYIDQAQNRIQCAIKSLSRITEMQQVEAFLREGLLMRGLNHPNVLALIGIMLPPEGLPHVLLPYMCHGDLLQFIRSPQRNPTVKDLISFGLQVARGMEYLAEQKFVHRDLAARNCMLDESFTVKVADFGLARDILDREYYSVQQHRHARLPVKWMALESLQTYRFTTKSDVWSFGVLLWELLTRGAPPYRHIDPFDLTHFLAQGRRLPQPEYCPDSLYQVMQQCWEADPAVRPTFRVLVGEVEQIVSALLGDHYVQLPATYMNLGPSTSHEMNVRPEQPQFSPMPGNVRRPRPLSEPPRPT
Sequence of FYN (P06241 whole entry): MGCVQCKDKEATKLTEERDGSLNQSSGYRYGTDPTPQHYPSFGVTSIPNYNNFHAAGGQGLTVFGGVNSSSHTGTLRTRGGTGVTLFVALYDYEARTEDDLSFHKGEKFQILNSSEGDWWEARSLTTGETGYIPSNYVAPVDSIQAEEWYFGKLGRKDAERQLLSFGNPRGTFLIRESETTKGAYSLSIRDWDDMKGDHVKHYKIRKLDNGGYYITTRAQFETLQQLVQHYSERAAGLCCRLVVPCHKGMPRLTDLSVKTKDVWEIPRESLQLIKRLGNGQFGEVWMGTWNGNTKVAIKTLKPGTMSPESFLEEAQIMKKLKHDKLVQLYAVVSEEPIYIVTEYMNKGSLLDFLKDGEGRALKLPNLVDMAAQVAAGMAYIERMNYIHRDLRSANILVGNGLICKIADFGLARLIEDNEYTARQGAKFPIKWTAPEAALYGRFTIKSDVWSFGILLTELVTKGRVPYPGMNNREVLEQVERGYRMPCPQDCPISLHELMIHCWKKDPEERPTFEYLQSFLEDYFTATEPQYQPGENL

With `Cc1ccc(NC(=O)c2ccc(CN3CCN(C)CC3)cc2)cc1Nc1nccc(-c2cccnc2)[n+]1[Pt-2]1([Cl])[NH2+]C2CCCCC2[NH2+]1` (centres unmarked) [1b, oxaliplatin-imatinib], the Percent control in test [1] was 100%; in test [2], 10%; in test [3] it was 100%; in test [4], 80%; in test [5], 78%; in test [6], 5%. This compound yielded a Percent control in test [7] of 94%.

Turning to `C#Cc1cccc(Nc2c3cc(OCCOC)c(OCCOC)cc3nc[n+]2[Pt@SP2-2]([NH3+])([NH3+])[Cl])c1` [2a, cisplatin-erlotinib], the Percent control is reported as 100% in test [1]; 100% in test [2]; 100% in test [3]; 85% in test [4]; 72% in test [5]; 56% in test [6]. In test [7], the Percent control was 90%.

Take `COc1cc2c(Nc3ccc(Br)cc3F)[n+]([Pt-2]3([Cl])[NH2+]C4CCCCC4[NH2+]3)cnc2cc1OCC1CCN(C)CC1` (centres unmarked) [3b, oxaliplatin-vandetanib]: the Percent control in test [1] is on record as 100%; in test [2] it was 0.21%; in test [4], 0%; in test [5] it was 32%; in test [6], 2.7%; in test [7], 31%.

Turning to `C#Cc1cccc(Nc2ncnc3cc(OCCOC)c(OCCOC)cc23)c1` [Erlotinib], the remaining activity at 10 µM in test [8] was 100%.

For `Cc1ccc(NC(=O)c2ccc(CN3CCN(C)CC3)cc2)cc1Nc1nccc(-c2cccnc2)n1` [Imatinib, reference compound], the Percent control in test [1] turned out to be 100%; in test [2] it was 0.1%; in test [3] it was 100%; in test [4], 100%; in test [7], 100%. Further, the remaining activity at 10 µM in test [8] came out at 0.1%.

As for `COc1cc2c(Nc3ccc(Br)cc3F)ncnc2cc1OCC1CCN(C)CC1` [Vandetanib, reference compound], the remaining binding at 10 µM in test [4] (read-out: Percent control) worked out at 0.9%. The remaining activity at 10 µM in test [8] stood at 0.3%.

The values are drawn from publication PMC4858680, “A platinum-based hybrid drug design approach to circumvent acquired resistance to molecular targeted tyrosine kinase inhibitors” (Scientific Reports, 2016).
